Columns and labels:
[1] = target: T1, Nd-MalFGK2 (Escherichia coli, UniProt P02916+P68183+P68187); test: Native-PAGE (CN-PAGE) binding of [125I]-MalE to Nd-MalFGK2; design: species or system E. coli; conditions: maltose 1 mM, AMP-PNP or ATP plus vanadate
T1 construct: made in house; host or cells: E. coli BL21
Experimental: After incubation (10 min, 37°C), samples were analyzed by CN-PAGE followed by Coomassie blue staining (bottom part) and autoradiography (upper part). […] After incubation (10 min, 37°C), samples were analyzed by CN-PAGE followed by Coomassie blue staining (bottom part) then autoradiography (upper part). […] After incubation (10 min, 37°C), samples were analyzed by CN-PAGE and autoradiography. […] The position MalE-31 and MalF-177 are indicated in red. […] When the data were fitted to one-site binding equation, the dissociation constant in the presence of AMP-PNP was ∼79 nM.
(§1) Samples were analyzed by CN-PAGE and autoradiography. […] After incubation (10 min, 37°C), samples were analyzed by CN-PAGE and autoradiography. […] The reported values were derived from 3 independent experiments.
(§2) The MalFGK2 ATPase activity was determined by monitoring the release of inorganic phosphate using photo-colorimetric method. Linear gradient blue-native (BN) and colorless-native (CN) gel electrophoresis was performed as described. Sucrose gradient analysis was performed as described. MalE was iodinated using the Iodogen reagent (Pierce-Thermo Scientific). The specific activity of [^125I]-MalE was ∼2×10^5 c.p.m./μg.

[2] = target: T1, Nd-MalFGK2; test: ATPase activity of MalFGK2 in nanodiscs; type: biochemical, E. coli
Experimental: Figure 1 ATPase activity of the MalFGK2 complex in nanodiscs. (A) The MalFGK2 complex in nanodisc (lane 1) and detergent solution (lane 2) was analyzed by BN-PAGE and CN-PAGE followed by Coomassie blue staining of the gel. Molecular weight markers: BSA (67/134 kDa); catalase (232 kDa); ferritin (440 kDa). On CN-PAGE, the MalFGK2 complex precipitates as a protein smear at the top of the gel. […] The reported values were derived from 3 independent experiments.
as §1, §2

[3] = target: T2, MalE-MalFGK2 complex (Escherichia coli, UniProt P02916+P0AEX9+P68183+P68187, T177W/T57C); test: Maltose affinity of transporter-bound MalE (fluorescence quenching, competitive fit and equilibrium titration); type: binding, E. coli; conditions: sugar 1 mM added to preformed complex, AMP-PNP
T2 construct: made in house; host or cells: E. coli BL21
T2 sequence (P68187 whole entry): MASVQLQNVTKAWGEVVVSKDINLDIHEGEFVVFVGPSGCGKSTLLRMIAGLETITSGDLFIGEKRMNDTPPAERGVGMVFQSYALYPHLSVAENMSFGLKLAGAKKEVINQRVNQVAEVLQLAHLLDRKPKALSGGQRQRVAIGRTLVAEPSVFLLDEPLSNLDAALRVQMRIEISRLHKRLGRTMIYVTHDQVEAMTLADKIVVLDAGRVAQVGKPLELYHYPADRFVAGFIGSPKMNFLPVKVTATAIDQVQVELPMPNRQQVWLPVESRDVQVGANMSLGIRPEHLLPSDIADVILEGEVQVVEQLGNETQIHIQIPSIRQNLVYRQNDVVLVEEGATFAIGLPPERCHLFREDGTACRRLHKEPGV
T2 sequence (P68183 whole entry): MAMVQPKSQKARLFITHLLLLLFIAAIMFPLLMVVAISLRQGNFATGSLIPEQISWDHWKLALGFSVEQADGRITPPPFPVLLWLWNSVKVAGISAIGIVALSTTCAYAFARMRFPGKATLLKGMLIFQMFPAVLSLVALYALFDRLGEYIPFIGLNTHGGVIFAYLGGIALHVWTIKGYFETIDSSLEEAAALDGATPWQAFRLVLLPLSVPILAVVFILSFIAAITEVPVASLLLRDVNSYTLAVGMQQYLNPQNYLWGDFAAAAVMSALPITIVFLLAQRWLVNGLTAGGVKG
T2 sequence (P02916 whole entry T177W): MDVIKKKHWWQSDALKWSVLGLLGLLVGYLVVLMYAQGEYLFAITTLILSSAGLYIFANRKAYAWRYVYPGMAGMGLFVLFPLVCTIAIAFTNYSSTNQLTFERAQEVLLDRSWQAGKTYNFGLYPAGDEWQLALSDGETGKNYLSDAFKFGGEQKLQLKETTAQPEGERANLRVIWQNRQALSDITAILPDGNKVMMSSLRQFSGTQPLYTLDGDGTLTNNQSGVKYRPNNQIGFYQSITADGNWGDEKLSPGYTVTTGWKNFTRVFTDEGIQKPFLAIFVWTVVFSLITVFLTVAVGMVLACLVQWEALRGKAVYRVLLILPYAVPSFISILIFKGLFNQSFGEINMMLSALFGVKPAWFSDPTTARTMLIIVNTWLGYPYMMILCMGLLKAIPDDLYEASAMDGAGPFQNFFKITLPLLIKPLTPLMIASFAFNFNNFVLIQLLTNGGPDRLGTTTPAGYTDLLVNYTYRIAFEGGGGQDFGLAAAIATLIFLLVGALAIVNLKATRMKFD
Experimental: After incubation (10 min, 37°C), samples were analyzed by CN-PAGE and (A) autoradiography or (B) Coomassie blue staining. […] At the indicated time (arrow), 1 mM maltooligosaccharides were added to the reaction mixture. […] After incubation (10 min, 37°C), samples were analyzed by CN-PAGE and autoradiography.
Fluorescence was recorded on a Cary Eclipse spectrofluorometer at 25°C. […] Excitation and emission wavelength were 280 nm and 350 nm, respectively (10 nm slit widths). […] The fluorescence emission was monitored over time and the signal was allowed to equilibrate after each addition for 180 s.
Competitive one-site ligand binding. […] The data (Fig. 2F, red curve) were fitted to a competitive one-site binding equation, defined as: [picture]

[4] = test system: HisQM; design: method as in PMID 8662800; conditions: cited from earlier work
[5] = test system: BtuCD; conditions: cited from earlier work
[6] = read-out: Kd of BtuF for its ligand; cited from earlier work

T1 sequence (P68187 whole entry): as the sequence (P68187 whole entry) above
T1 sequence (P68183 whole entry): as the sequence (P68183 whole entry) above
T1 sequence (P02916 whole entry): as the sequence (P02916 whole entry T177W) above, with W177T counted along it

OC[C@H]1O[C@H](O[C@H]2[C@H](O)[C@@H](O)C(O)O[C@@H]2CO)[C@H](O)[C@@H](O)[C@@H]1O (mixture of isomers) [maltose]
effect of maltose on binding of MalE to MalFGK2 on native-PAGE [1]: significantly reduced
effect of maltose on MalE-stimulated ATPase activity ([2]; in disc and in detergent, maltose 1 mM, MalE 2 µM): significant inhibition of the ATPase activity
effect of maltose alone on basal ATPase activity ([2]; no MalE): did not effect the basal ATPase activity
dissociation of MalE from the transporter in nanodiscs [3]: rapid loss of fluorescence quenching

B1: HisJ: binding protein of histidine transport, binds HisQM (protein, UniProt P0AEU0 23-260, looked up)
Histidine-binding periplasmic …: AIPQNIRIGTDPTYAPFESKNSQGELVGFDIDLAKELCKRINTQCTFVENPLDALIPSLKAKKIDAIMSSLSITEKRQQEIAFTDKLYAADSRLVVAKNSDIQPTVESLKGKRVGVLQGTTQETFGNEHWAPKGIEIVSYQGQDNIYSDLTAGRIDAAFQDEVAASEGFLKQPVGKDYKFGGPSVKDEKLFGVGTGMGLRKEDNELREALNKAFAEMRADGTYEKLAKKYFDFDVYGG
reduction of binding of HisJ to HisQM by saturating histidine [4]: 3 fold

B2: BtuF: substrate binding protein of the vitamin B12 transporter (protein, UniProt P37028 23-266, looked up)
Vitamin B12-binding protein: APRVITLSPANTELAFAAGITPVGVSSYSDYPPQAQKIEQVSTWQGMNLERIVALKPDLVIAWRGGNAERQVDQLASLGIKVMWVDATSIEQIANALRQLAPWSPQPDKAEQAAQSLLDQYAQLKAQYADKPKKRVFLQFGINPPFTSGKESIQNQVLEVCGGENIFKDSRVPWPQVSREQVLARSPQAIVITGGPDQIPKIKQYWGEQLKIPVIPLTSDWFERASPRIILAAQQLCNALSQVD
reduction of the BtuF-BtuCD interaction by saturating vitamin B12 [5]: ~10^5 fold
Kd [6]: ~15 nM

Source: PMC3328499 (PLoS ONE, 2012)
